Data taken from patent US10285979B2, “Breast cancer therapeutic agent containing 5′-hydroxy-5-nitro-indirubin-3′-oxime as active ingredient” (ANYGEN CO., LTD., priority 2016, dated 2019).
Where two headings read alike, the source gives them in different places.

System: MDA-MB-231 triple negative breast cancer cells
Conditions: paclitaxel 5 mg/kg
Excerpt: After implanting MDA-MB-231 triple negative breast cancer cells to the nude mouse, the tumor has been grown to the 200 mm^3 volume. […] The tumor growth has been observed for 27 days.
The tumor volume and shape in the nude mouse have been observed for 27 days.

## CC(=O)O[C@H]1C(=O)[C@@]2(C)[C@H]([C@H](OC(=O)c3ccccc3)[C@]3(O)C[C@H](OC(=O)[C@H](O)[C@@H](NC(=O)c4ccccc4)c4ccccc4)C(C)=C1C3(C)C)[C@]1(OC(C)=O)CO[C@@H]1C[C@@H]2O [Paclitaxel, paclitaxel, reference compound]
Day 0
  volume of tumor, Mean ± S.E.: 277.1 ± 16.2
Day 3
  volume of tumor, Mean ± S.E.: 354.3 ± 6.3
Day 6
  volume of tumor, Mean ± S.E.: 437.9 ± 20.8
Day 12
  volume of tumor, Mean ± S.E.: 716.8 ± 72.9
Day 15
  volume of tumor, Mean ± S.E.: 906.2 ± 88.2
Day 18
  volume of tumor, Mean ± S.E.: 1161.2 ± 86.4
Day 21
  volume of tumor, Mean ± S.E.: 1421.7 ± 82.6
Day 24
  volume of tumor, Mean ± S.E.: 1760.2 ± 83.8
Day 27
  volume of tumor, Mean ± S.E.: 2136.0 ± 125.9
